“Also recorded” adds a separate entry of the source.
How the values were obtained:
[1] = tested on: noise-induced hearing loss (NIHL) in C57BL/6J mice; assay: NIHL treatment protocol: drug i.p. 24 hours after white noise (110 dB SPL, 30 min), ABR threshold shifts; settings: for ED50: Mus musculus, ip, 24 h, read-out: median effective dose (ED50) to treat noise-induced hearing loss; for drug effect on ABR threshold shift (two-way ANOVA), treatment / gender effect on ABR threshold shift (two-way ANOVA), treatment: 24 hours after noise
[2] = tested on: noise-induced hearing loss (NIHL) in C57BL/6J mice; assay: NIHL prevention protocol: drug i.p. two hours before white noise (110 dB SPL, 30 min), ABR thresholds / threshold shifts two weeks after noise; settings: for ED50: Mus musculus, ip, 2 h, read-out: median effective dose (ED50) to prevent noise-induced hearing loss; for drug effect on ABR threshold shift (two-way ANOVA), prevention: all dosages
NIHL in mice [3] = settings: cited from earlier work; for prophylactic and therapeutic effects against NIHL: drinking water, three weeks before noise
cultured auditory cells = settings: cited from earlier work
NIHL in mice [4] = settings: intraperitoneal injections; cited from earlier work

SMILES: C[C@@H]1C[C@H]2[C@@H]3CCC4=CC(=O)C=C[C@]4(C)[C@@]3(F)[C@@H](O)C[C@]2(C)[C@@]1(O)C(=O)CO [dexamethasone]
- ED50 [1]: 96.3 mg/kg
- ED50 [2]: 39.4 mg/kg

SMILES: CCC1(C)CC(=O)NC1=O (stereo not drawn) [ethosuximide]
- prophylactic and therapeutic effects against NIHL (NIHL in mice [3]): both prophylactic and therapeutic effects
- drug effect on ABR threshold shift (two-way ANOVA), treatment [1]: statistically significant drug effects
- gender effect on ABR threshold shift (two-way ANOVA), treatment [1]: the gender effect was also significant; also recorded: gender difference was also observed
- ED50 [1]: 243 mg/kg
- effect on NIHL (Tukey/Kramer post-hoc) ([2]; 60 mg/kg, two hours before noise): significantly enhanced NIHL
- effect on NIHL (Tukey/Kramer post-hoc) ([2]; 90 mg/kg, two hours before noise): significantly protected against NIHL
- effect on NIHL (Tukey/Kramer post-hoc) ([2]; 130 to 260 mg/kg, two hours before noise): reduced to no significance
- median effective dose (ED50) to prevent noise-induced hearing loss ([2]; i.p. two hours before noise, calculated with CompuSyn (Chou-Talalay)): no ED50; also recorded: could not be obtained
- gender effect on ABR threshold shift (two-way ANOVA), prevention ([2]; two hours before noise): showed no gender differences
- drug effect on ABR threshold shift (two-way ANOVA), prevention ([2]; two hours before noise): statistically significant main effect of drug concentrations

SMILES: Fc1ccc(C(c2ccc(F)cc2)N2CCN(C/C=C/c3ccccc3)CC2)cc1 [flunarizine]
- cisplatin-induced cell death (cultured auditory cells): inhibit cisplatin-induced death of cultured auditory cells
- NIHL prophylactic function (NIHL in mice [4]): no NIHL prophylactic functions

SMILES: C[C@H]1C[C@@H]2[C@H]([C@@H](O)C[C@@]3(C)[C@H]2CC[C@]3(O)C(=O)CO)[C@@]2(C)C=CC(=O)C=C12 [methylprednisolone]
- ED50 [1]: 95.6 mg/kg
- ED50 [2]: 525 mg/kg

SMILES: COCC(=O)O[C@]1(CCN(C)CCCc2nc3ccccc3[nH]2)CCc2cc(F)ccc2[C@@H]1C(C)C [mibefradil]
- NIHL prophylactic function (NIHL in mice [4]): no NIHL prophylactic functions

SMILES: CN1C(=O)OC(C)(C)C1=O [trimethadione]
- prophylactic and therapeutic effects against NIHL (NIHL in mice [3]): both prophylactic and therapeutic effects
- gender dependence of therapeutic effect against NIHL (NIHL in mice [3]; mouse, in vivo): observed only in male mice
- outer hair cell (OHC) protection (NIHL in mice [3]; mouse, in vivo): OHC protection was observed

SMILES: NS(=O)(=O)Cc1noc2ccccc12 [zonisamide]
- drug effect on ABR threshold shift (two-way ANOVA), treatment [1]: no statistically significant drug effects
- gender effect on ABR threshold shift (two-way ANOVA), treatment [1]: the gender had no effects as well
- ED50 [1]: 2540 mg/kg
- ED50 [2]: 125 mg/kg
- dosage dependence of NIHL prevention ([2]; two hours before noise): clear dosage-dependent prevention of NIHL
- gender effect on ABR threshold shift (two-way ANOVA), prevention ([2]; two hours before noise): the gender had no effects; also recorded: showed no gender differences
- drug effect on ABR threshold shift (two-way ANOVA), prevention ([2]; two hours before noise): statistically significant drug effects
